The record followed here is ChEMBL document CHEMBL1128754, “The SAR of 6-(N-alkyl-N-acyl)-2-propyl-3-[(2-tetrazol-5-yl)biphen-4-yl)methyl]-quinazolinones as balanced affinity antagonists of the human AT1 and AT2 receptors” (Bioorg Med Chem Lett, 1995).

One data set can be described thus: physchem. The note with it: octanol/water.
Data set [1] deals with T1, Type-1 angiotensin II receptor (Oryctolagus cuniculus, UniProt P34976).
T1 sequence (P34976 whole entry): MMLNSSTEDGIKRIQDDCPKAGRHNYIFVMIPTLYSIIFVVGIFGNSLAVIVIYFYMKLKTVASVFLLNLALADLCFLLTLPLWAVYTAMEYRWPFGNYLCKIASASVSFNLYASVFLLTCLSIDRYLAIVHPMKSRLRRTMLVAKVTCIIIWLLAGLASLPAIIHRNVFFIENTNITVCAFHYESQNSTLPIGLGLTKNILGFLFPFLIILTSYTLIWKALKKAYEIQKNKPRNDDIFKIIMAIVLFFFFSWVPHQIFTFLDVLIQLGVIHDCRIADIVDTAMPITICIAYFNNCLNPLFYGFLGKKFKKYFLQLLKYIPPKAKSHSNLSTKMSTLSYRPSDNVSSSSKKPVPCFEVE
Nature of the data set: biochemical.
Description: Binding affinity against AT1 receptor in rabbit aorta

The species entered for data set [2] is Rattus norvegicus. The note with it: dose 1 mg/kg; route intravenous.
For data set [3], the target named is Angiotensin II receptor (Homo sapiens) (UniProt P30556+P50052). The data set can be described thus: Ratio of receptor binding affinity AT2/AT1 in human adrenal tissue in th+e presence of 2 mg/ml bovine serum albumin. It is filed as protein assay.
Sequence of Angiotensin II receptor (Homo sapiens) (P30556 whole entry, looked up): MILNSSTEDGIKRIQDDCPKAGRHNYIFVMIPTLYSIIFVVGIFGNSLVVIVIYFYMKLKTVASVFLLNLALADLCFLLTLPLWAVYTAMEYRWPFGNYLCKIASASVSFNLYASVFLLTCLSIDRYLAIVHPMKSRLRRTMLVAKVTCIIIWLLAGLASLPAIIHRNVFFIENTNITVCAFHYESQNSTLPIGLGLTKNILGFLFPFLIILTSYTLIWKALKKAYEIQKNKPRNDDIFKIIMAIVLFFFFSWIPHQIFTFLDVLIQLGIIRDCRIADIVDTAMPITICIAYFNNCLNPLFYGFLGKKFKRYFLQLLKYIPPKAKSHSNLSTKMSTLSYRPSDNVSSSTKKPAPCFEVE
Sequence of Angiotensin II receptor (Homo sapiens) (P50052 whole entry, looked up): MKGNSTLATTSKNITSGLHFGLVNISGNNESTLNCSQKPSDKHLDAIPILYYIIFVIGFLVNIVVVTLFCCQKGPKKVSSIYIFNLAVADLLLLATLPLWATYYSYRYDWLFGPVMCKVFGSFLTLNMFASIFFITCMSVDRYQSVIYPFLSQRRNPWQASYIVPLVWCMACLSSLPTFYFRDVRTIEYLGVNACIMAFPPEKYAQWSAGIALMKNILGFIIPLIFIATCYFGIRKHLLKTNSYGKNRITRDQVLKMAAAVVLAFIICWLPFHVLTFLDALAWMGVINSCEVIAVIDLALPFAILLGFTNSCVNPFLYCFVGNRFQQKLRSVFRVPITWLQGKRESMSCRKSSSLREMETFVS
Data set [4] addresses T2, Angiotensin II receptor (AT-1) type-1 (Rattus norvegicus, UniProt P29089+P25095).
T2 sequence (P29089 whole entry): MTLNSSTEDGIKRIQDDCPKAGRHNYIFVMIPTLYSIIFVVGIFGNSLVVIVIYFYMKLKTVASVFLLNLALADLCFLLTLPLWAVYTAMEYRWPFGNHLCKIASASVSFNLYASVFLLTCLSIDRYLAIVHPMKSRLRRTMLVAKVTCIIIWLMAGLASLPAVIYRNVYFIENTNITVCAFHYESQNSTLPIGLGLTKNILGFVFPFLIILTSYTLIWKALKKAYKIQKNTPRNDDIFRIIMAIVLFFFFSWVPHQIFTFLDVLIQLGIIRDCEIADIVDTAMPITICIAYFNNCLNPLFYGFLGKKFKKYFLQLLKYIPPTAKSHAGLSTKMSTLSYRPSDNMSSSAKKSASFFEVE
T2 sequence (P25095 whole entry): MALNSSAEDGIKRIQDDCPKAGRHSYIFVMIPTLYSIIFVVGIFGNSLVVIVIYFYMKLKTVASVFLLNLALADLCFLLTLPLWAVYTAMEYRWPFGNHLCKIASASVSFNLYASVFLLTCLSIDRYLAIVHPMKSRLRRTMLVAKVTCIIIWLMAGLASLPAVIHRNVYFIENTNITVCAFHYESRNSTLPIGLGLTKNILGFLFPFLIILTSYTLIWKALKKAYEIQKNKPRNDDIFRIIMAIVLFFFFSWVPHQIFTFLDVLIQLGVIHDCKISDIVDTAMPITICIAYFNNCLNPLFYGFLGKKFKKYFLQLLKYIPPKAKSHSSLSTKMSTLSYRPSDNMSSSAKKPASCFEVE
Nature of the data set: Binding affinity against AT1 receptor in rat adrenal tissue. It counts as tissue-based.

Data set [5] deals with T3, Type-1 angiotensin II receptor (Homo sapiens, UniProt P30556).
T3 sequence (P30556 whole entry): T1 sequence (P34976 whole entry) with M2I, A49V, V254I, V270I, H272R, K311R, S349T, V353A
The data set can be described thus: biochemical.
Description: Binding affinity against AT1 receptor in human adrenal tissue

The target in data set [6] is Angiotensin II receptor (Rattus norvegicus) (UniProt P29089+P25095+P35351). The data set can be described thus: Ratio of receptor binding affinity AT2/AT1 in rat adrenal tissue.
Data set [7] is filed under the species Rattus norvegicus. To be noted: dose 1 mg/kg; route oral.

Residue numbers refer to the chain shown, from its start.

Description for physchem: Partition coefficient (logP)

On to `CC(=O)OCCCCN(C(=O)c1ccccc1)c1ccc2ncn(Cc3ccc(-c4ccccc4-c4nnnn4C)cc3)c(=O)c2c1`, for which the logP in “physchem” is 3.3. In addition, inhibition in data set [1] was half-maximal at 1.3 nM (IC50).
Take `Cn1nnnc1-c1ccccc1-c1ccc(Cn2cnc3ccc(N(Cc4ccccc4)C(=O)c4ccccn4)cc3c2=O)cc1`: the logP in “physchem” amounted to 3.8. This compound registered an IC50 in data set [1] of 9.3 nM.
With `CCCCCN(C(=O)c1ccncc1)c1ccc2ncn(Cc3ccc(-c4ccccc4-c4nnnn4C)cc3)c(=O)c2c1`, the logP in “physchem” is 4.3. The Duration in the data set filed under Rattus norvegicus [2] was >3 h. This compound had an IC50 in data set [1] of 2.8 nM.
The compound `CCCN(C(=O)c1ccc(F)cc1)c1ccc2ncn(Cc3ccc(-c4ccccc4-c4nnnn4C)cc3)c(=O)c2c1` had a logP in the data set “physchem” of 4.3. 1.9 nM corresponded to half-maximal inhibition in data set [1] (IC50).
With `CCCCN(C(=O)c1ccc(O)cc1)c1ccc2ncn(Cc3ccc(-c4ccccc4-c4nnnn4C)cc3)c(=O)c2c1`, the Ratio in data set [3] was found to be 6.8; in data set [6], 17. This compound came in with a logP in “physchem” of 4.2. Also, the IC50 in data set [4] is 0.3 nM; in data set [5] it was 4 nM; in data set [1], 1.2 nM. For the same compound, the Duration in the data set filed under Rattus norvegicus [2] was >3 h.
For the compound `CCCCCN(C(=O)c1ccccc1OC)c1ccc2ncn(Cc3ccc(-c4ccccc4-c4nnnn4C)cc3)c(=O)c2c1`, in “physchem”, the logP is 5. Also, 1.1 nM corresponded to half-maximal inhibition in data set [1] (IC50).
On to `CCCCS(=O)(=O)N(Cc1ccccc1)c1ccc2ncn(Cc3ccc(-c4ccccc4-c4nnnn4C)cc3)c(=O)c2c1`, for which the midpoint of inhibition in data set [1], the IC50, lay at 23 nM.
Take `Cn1nnnc1-c1ccccc1-c1ccc(Cn2cnc3ccc(N(Cc4ccc(O)cc4)C(=O)c4ccccc4)cc3c2=O)cc1`: the Ratio turned out to be 0.8 in data set [3] and 1.5 in data set [6]. In addition, in “physchem”, the logP turned out to be 3.6. In addition, the IC50 in data set [4] is 0.5 nM; in data set [5], 6 nM; in data set [1], 4.9 nM.
For `CCCCCN(C(=O)c1ccc(OCc2ccccc2)cc1)c1ccc2ncn(Cc3ccc(-c4ccccc4-c4nnnn4C)cc3)c(=O)c2c1`, in “physchem”, the logP is > 5.7. In data set [1], this compound registered an IC50 of 8.4 nM.
Take `CCCCCN(C(=O)c1ccc(O)cc1)c1ccc2ncn(Cc3ccc(-c4ccccc4-c4nnnn4C)cc3)c(=O)c2c1`: the Ratio came out at 5.8 in data set [3] and 3.1 in data set [6]. The compound also showed a logP in “physchem” of 4.7. In addition, the IC50 in data set [4] amounted to 0.5 nM; in data set [5], 4.9 nM; in data set [1] it was 0.9 nM. Besides, the Duration in the data set listed under Rattus norvegicus [2] is >3 h.
The compound `CCOC(=O)CCCN(C(=O)c1ccccc1)c1ccc2ncn(Cc3ccc(-c4ccccc4-c4nnnn4C)cc3)c(=O)c2c1` gave a logP in the data set “physchem” of 4.1. This compound also registered an IC50 in data set [1] of 2.3 nM.
Consider `CCCCCN(C(=O)c1cccnc1)c1ccc2ncn(Cc3ccc(-c4ccccc4-c4nnnn4C)cc3)c(=O)c2c1`, for which the logP in the data set “physchem” came out at 4.3. In the data set filed under Rattus norvegicus [2], the Duration was <3 h. Also, half-maximal inhibition in data set [1] (IC50) required 4.5 nM.
As for `Cn1nnnc1-c1ccccc1-c1ccc(Cn2cnc3ccc(N(CCCCO)C(=O)c4ccccc4)cc3c2=O)cc1`, in data set [1], the IC50 is 2.6 nM.
The compound `COCCOCCN(C(=O)c1ccccc1)c1ccc2ncn(Cc3ccc(-c4ccccc4-c4nnnn4C)cc3)c(=O)c2c1` had a logP in “physchem” of 3.6. Besides, the IC50 in data set [1] was 2.2 nM.
Turning to `Cn1nnnc1-c1ccccc1-c1ccc(Cn2cnc3ccc(N(Cc4ccccc4)C(=O)c4ccccc4)cc3c2=O)cc1`, the logP in the data set “physchem” is 4.5. The values for the IC50 in data set [4] and in data set [1] were 0.6 nM and 4.6 nM, respectively. Further, the Duration in the data set filed under Rattus norvegicus [2] is <3 h. In data set [6], the Ratio was determined as 0.1.
On to `CCCCCN(C(=O)c1ccc(F)cc1)c1ccc2ncn(Cc3ccc(-c4ccccc4-c4nnnn4C)cc3)c(=O)c2c1`, for which the logP in “physchem” is 5.2. This compound showed an IC50 in data set [1] of 1.7 nM.
In the case of `CCCCCN(C(=O)c1ccc(S(C)(=O)=O)cc1)c1ccc2ncn(Cc3ccc(-c4ccccc4-c4nnnn4C)cc3)c(=O)c2c1`, the logP in the data set “physchem” amounted to 4.4. In addition, in data set [1], the IC50 was determined as 7.2 nM.
The like results for `CCOCCN(C(=O)c1ccccc1)c1ccc2ncn(Cc3ccc(-c4ccccc4-c4nnnn4C)cc3)c(=O)c2c1` were, in that order, 3.9 and 1.6 nM.
Consider `Cn1nnnc1-c1ccccc1-c1ccc(Cn2cnc3ccc(N(Cc4ccncc4)C(=O)c4ccccc4)cc3c2=O)cc1`, for which the logP in “physchem” is 3.4. Moreover, in data set [1], the IC50 was 5.5 nM.
For the compound `CCCCCN(C(=O)c1ccc([S+](C)[O-])cc1)c1ccc2ncn(Cc3ccc(-c4ccccc4-c4nnnn4C)cc3)c(=O)c2c1` (stereo not drawn), the logP in the data set “physchem” was 4.3. In addition, the Duration in the data set filed under Rattus norvegicus [2] is <3 h. This compound also registered an IC50 in data set [1] of 21 nM.
In the case of `Cn1nnnc1-c1ccccc1-c1ccc(Cn2cnc3ccc(N(CCCC(=O)O)C(=O)c4ccccc4)cc3c2=O)cc1`, the logP in the data set “physchem” was 2.3. In addition, inhibition in data set [1] was half-maximal at 9.5 nM (IC50).
Take `CCCCCN(C(=O)c1ccco1)c1ccc2ncn(Cc3ccc(-c4ccccc4-c4nnnn4C)cc3)c(=O)c2c1`: in the data set filed under Rattus norvegicus [2], the Duration was <3 h. The IC50 in data set [1] worked out at 3.2 nM.
`Cn1nnnc1-c1ccccc1-c1ccc(Cn2cnc3ccc(N(Cc4ccccc4)C(=O)c4ccncc4)cc3c2=O)cc1` showed a logP in the data set “physchem” of 3.7. This compound also displayed an IC50 in data set [1] of 3.4 nM.
`Cn1nnnc1-c1ccccc1-c1ccc(Cn2cnc3ccc(N(Cc4ccc(C(=O)O)cc4)C(=O)c4ccccc4)cc3c2=O)cc1`: the logP in the data set “physchem” was 2.4. This compound also came in with an IC50 in data set [1] of 6.5 nM.
`Cn1nnnc1-c1ccccc1-c1ccc(Cn2cnc3ccc(N(CC(=O)c4ccco4)C(=O)c4ccccc4)cc3c2=O)cc1` yielded an IC50 in data set [1] of 18.5 nM.
In the case of `CCCCC(=O)N(Cc1ccccc1)c1ccc2ncn(Cc3ccc(-c4ccccc4-c4nnnn4C)cc3)c(=O)c2c1`, in data set [3], the Ratio was determined as 0.1. In “physchem”, this compound yielded a logP of 5.4. For the same compound, the Duration in the data set listed under Rattus norvegicus [7] and in the data set listed under Rattus norvegicus [2] was >3 h in each case. Further, the IC50 in data set [5] is 5.7 nM; in data set [1], 2.4 nM.
As to `CCCCCN(C(=O)c1ccc(SC)cc1)c1ccc2ncn(Cc3ccc(-c4ccccc4-c4nnnn4C)cc3)c(=O)c2c1`, in data set [1], it took 6.4 nM to reach half-maximal inhibition (IC50).
In turn, `Cn1nnnc1-c1ccccc1-c1ccc(Cn2cnc3ccc(N(C(=O)c4ccccc4)c4ccccc4)cc3c2=O)cc1` came in with an IC50 in data set [1] of 2.5 nM.
As to `COC(=O)c1ccc(CN(C(=O)c2ccccc2)c2ccc3ncn(Cc4ccc(-c5ccccc5-c5nnnn5C)cc4)c(=O)c3c2)cc1`, the Ratio in data set [3] turned out to be 1.7; in data set [6] it was 1.9. For the same compound, the logP in “physchem” was 4.4. Moreover, the values for the IC50 in data set [4], in data set [5] and in data set [1] were 0.8 nM, 9.6 nM and 3.9 nM, respectively. The Duration in the data set filed under Rattus norvegicus [2] was <3 h.
For the compound `Cn1nnnc1-c1ccccc1-c1ccc(Cn2cnc3ccc(N(Cc4ccccn4)C(=O)c4ccccc4)cc3c2=O)cc1`, the Ratio in data set [3] was determined as 0.2; in data set [6], 0.5. This compound also registered a logP in “physchem” of 3.6. Moreover, the results for the IC50 in data set [4], in data set [5] and in data set [1] were 1.3 nM, 5.09 nM and 6.7 nM, respectively.
Consider `CCCCN(C(=O)c1ccc(F)cc1)c1ccc2ncn(Cc3ccc(-c4ccccc4-c4nnnn4C)cc3)c(=O)c2c1`, for which, in the data set “physchem”, the logP turned out to be 4.7. The compound also showed an IC50 in data set [1] of 2.3 nM.
In the case of `CCCCCN(Cc1ccccc1)c1ccc2ncn(Cc3ccc(-c4ccccc4-c4nnnn4C)cc3)c(=O)c2c1`, half-maximal inhibition in data set [1] (IC50) required 20 nM.
`Cn1nnnc1-c1ccccc1-c1ccc(Cn2cnc3ccc(N(Cc4ccccc4)C(=O)c4cccnc4)cc3c2=O)cc1` showed a logP in “physchem” of 3.7. For the same compound, in data set [1], the IC50 was 11 nM.

The term logP denotes the decadic logarithm of the partition coefficient of the neutral form, usually between octanol and water. Read a low logP as lower lipophilicity. Usually IC50 stands for the midpoint of a concentration-inhibition curve.
